{
  "source": "patent US20190008870A1",
  "about": "“COMPOSITIONS AND METHODS FOR LIPID METABOLISM DISORDER” (JANSFAT BIOTECHNOLOGY CO., LTD., priority 2016, published 2019)",
  "key": {"ROCK II [1]": {"tested_on": "ROCK II", "test": "ROCK II expression in HepG2 cells", "format": "cell-based", "method": "(§1) The HepG2 hepatoma cell line was purchased from the American Type Culture Collection (ATCC, Manassas, Va., U.S.A.). Cells were cultured in Dulbecco's Modified Eagle's Medium (DMEM). […] Then the targeted drugs solution was incubated with the cells for 24 hours, followed by protein extraction. […] HepG2 cells were treated with various concentrations of targeted drugs for 24 hours. Reactions were terminated by washing twice with cold PBS, and the cells were then harvested. Proteins in the whole-cell lysate were homogenized in an ice-cold lysis buffer and a protease inhibitor (Sigma-Aldrich, St. Louis, Mo., U.S.A.). The homogenate was centrifuged at 90,000×g for 15 minutes at 4° C., and supernatant was recovered as the total cellular protein. Cytosolic and membrane fractions of HepG2 cells were prepared using a CNM (Cytosol Nuclear Membrane) compartmental protein extraction kit (BioChain Institute Inc., Hayward, Calif., U.S.A.) according to the manufacturer's instructions. All of the fractionated protein solutions were stored at -80° C. until analysis. To measure the expression levels of proteins by drugs, the total cell protein was extracted after incubation with treatments for 24 hours and then Western blotting analysis was performed as described previously."}, "PPARγ": {"tested_on": "PPARγ", "test": "PPARγ expression in HepG2 cells", "format": "cell-based", "details": "HepG2 cells; for PPARγ: Control 100", "method": "as §1, with “−80°” for “-80°”"}, "ABCA1": {"tested_on": "ABCA1", "test": "ABCA1 expression in HepG2 cells", "format": "cell-based", "details": "HepG2 cells, 10^−5 M, 24 hours; Control 100, Vehicle 110", "method": "as §1, with “−80°” for “-80°”"}, "mice fed with HFD": {"tested_on": "mice fed with HFD", "test": "Serum and liver lipid levels of mice fed with HFD", "format": "in vivo", "details": "for HDL chol. / LDL chol. / TG / Tot. chol.: Dose 2.5 mg/kg (Table 2)", "method": "(§2) During the 2 month experiments, mice fasted for one night before the experiment was changed from a standard diet (STD) to an HFD and then the mice were randomly divided into 13 groups, including a protection group, 2 control and 10 treatment groups. Six mice were used in each group. […] Liver from the protection group supplemented with KMUP-1 HCl (1 mg/kg/day) were used to determine the HMG CoA reductase expression. Each group of mice had free access to drinking water from week 1 to week 14. Tap water was used to normalize mineral nutrition.\nWithin 2 months, the 3 day food intake average for each animal was measured. The weight gain and plasma lipid levels of each group were determined and compared to the non-treatment control group. […] Agents used in the assays were obtained from Merck & Co. (Kenilworth, N.J., U.S.A.). Triglyceride (TG), total cholesterol, HDL cholesterol and LDL cholesterol in mouse serum were measured by methods used in the clinic. To measure the hepatic Triglyceride, isolated liver were cut into small chips."}, "[2]": {"test": "Body weight and food intake of mice fed with HFD", "format": "in vivo", "details": "HFD mice, 5 mg/kg p.o.", "method": "as §2, with “In the experiment, C57BL/6J male mice (21-22 g), after fasting, were fed an HFD as a model of hyperlipidemia for 8 weeks. During” for “During”\nWithin 2 months, the 3 day food intake average for each animal was measured. The weight gain and plasma lipid levels of each group were determined and compared to the non-treatment control group. Mouse blood was collected during the daytime by cardiac puncture followed by centrifugation at 90×g (Benchtop Centrifuge, U.S.A.) to separate the serum, and frozen at −80° C., for biochemical analysis using a Hitachi Clinical Analyzer 7070 (Hitachi High-Technologies Co. Tokyo, Japan). Agents used in the assays were obtained from Merck & Co. (Kenilworth, N.J., U.S.A.). Triglyceride (TG), total cholesterol, HDL cholesterol and LDL cholesterol in mouse serum were measured by methods used in the clinic. To measure the hepatic Triglyceride, isolated liver were cut into small chips."}, "eNOS": {"tested_on": "eNOS", "test": "Expression of eNOS (Table 12)", "details": "Control group 100 (%)"}, "PDE-5A": {"tested_on": "PDE-5A", "test": "Expression of PDE-5A (Table 12)", "details": "Control group 100 (%)"}, "ROCK II [3]": {"tested_on": "ROCK II", "test": "Expression of ROCK II (Table 12)", "details": "Control group 100 (%)"}, "HMG CoA reductase": {"tested_on": "HMG CoA reductase", "test": "HMG CoA reductase expression in HepG2 cells (Western blotting)", "format": "cell-based", "details": "for HMGR (%): CTL 100", "method": "The HepG2 hepatoma cell line was purchased from the American Type Culture Collection (ATCC, Manassas, Va., U.S.A.). Cells were cultured in Dulbecco's Modified Eagle's Medium (DMEM). The culture media was supplemented with 5% heat-inactivated FBS, penicillin (100 U/mL) and streptomycin (100 μg/mL). Cells were grown in a humidified atmosphere containing 5% CO2 at 37° C., in which the oxygen tension in the incubator was held at 140 mmHg (20% O2, v/v; normoxic conditions). […] Then the targeted drugs solution was incubated with the cells for 24 hours, followed by protein extraction. The targeted drugs were added to the […].\nHepG2 cells were treated with various concentrations of targeted drugs for 24 hours. Reactions were terminated by washing twice with cold PBS, and the cells were then harvested. Proteins in the whole-cell lysate were homogenized in an ice-cold lysis buffer and a protease inhibitor (Sigma-Aldrich, St. Louis, Mo., U.S.A.). The homogenate was centrifuged at 90,000×g for 15 minutes at 4° C., and supernatant was recovered as the total cellular protein. Cytosolic and membrane fractions of HepG2 cells were prepared using a CNM (Cytosol Nuclear Membrane) compartmental protein extraction kit (BioChain Institute Inc., Hayward, Calif., U.S.A.) according to the manufacturer's instructions. All of the fractionated protein solutions were stored at −80° C. until analysis. To measure the expression levels of proteins by drugs, the total cell protein was extracted after incubation with treatments for 24 hours and then Western blotting analysis was performed as described previously."}},
  "note": "Values joined by “and” are separate entries in the source; they are usually repeats but may differ in a detail not shown here. Equal values may be shown once.",
  "data": [
    {"molecule": "CC(C)=CCC/C(C)=C/CC/C(C)=C/COP(=O)(O)OP(=O)(O)O", "note": "[FPP, Farnesyl pyrophosphate, reference compound]", "values": [
      {"measurement": "ROCKII", "setting": "ROCK II [1]; FPP (10 μM) alone, Control 100", "value": 118, "unit": "%"},
      {"measurement": "PPARγ", "setting": "PPARγ; FPP (10 μM) alone", "value": 64, "unit": "%"}
    ]},
    {"molecule": "C[C@@H](N)[C@H]1CC[C@H](C(=O)Nc2ccncc2)CC1", "note": "[Y27632, reference compound]", "values": [
      {"measurement": "ROCK II expression", "setting": "ROCK II [1]; 10^−5 M, 24 hours, Control 100, Vehicle 88", "value": 52},
      {"measurement": "PPARγ expression", "setting": "PPARγ; 10^−5 M, 24 hours, Control 100, Vehicle 260", "value": 550},
      {"measurement": "ABCA1 expression", "setting": "ABCA1", "value": 225}
    ]},
    {"molecule": "CC(C)=CCC/C(C)=C/CC/C(C)=C/CC/C(C)=C/COP(=O)(O)OP(=O)(O)O", "note": "[GGPP, Geranylgeranyl pyrophosphate, reference compound]", "values": [
      {"measurement": "ROCKII", "setting": "ROCK II [1]; GGPP (10 μM) alone, Control 100", "value": "150% and 220%"},
      {"measurement": "PPARγ", "setting": "PPARγ; GGPP (10 μM) alone", "value": 50, "unit": "%"}
    ]},
    {"molecule": "CCCc1nn(C)c2c(=O)nc(-c3cc(S(=O)(=O)N4CCN(C)CC4)ccc3OCC)[nH]c12", "note": "[SIDAF, 5-[2-ethoxy-5-(4-methylpiperazin-1-yl)-sulphonylphenyl]-1-methyl-3-propyl-4H-pyrazolo[4,3-d]pyrimidin-7-one, reference compound]", "values": [
      {"measurement": "HDL cholesterol", "setting": "mice fed with HFD; 5 mg/kg p.o.", "value": "103.2 ± 2.5", "unit": "mg/dL"},
      {"measurement": "LDL cholesterol", "setting": "mice fed with HFD; 5 mg/kg p.o.", "value": "15.3 ± 1.3", "unit": "mg/dL"},
      {"measurement": "TG in serum (Triacylglycerol)", "setting": "mice fed with HFD; 5 mg/kg p.o.", "value": "82.7 ± 6.3", "unit": "mg/dL"},
      {"measurement": "TG of liver", "setting": "mice fed with HFD; 5 mg/kg p.o.", "value": "34.5 ± 2.** mg/dl"},
      {"measurement": "Tot. chol. (total cholesterol)", "setting": "mice fed with HFD; 5 mg/kg p.o.", "value": "133.7 ± 4.3", "unit": "mg/dL"},
      {"measurement": "final BW (Body weight)", "setting": "[2]", "value": "23.9 ± 0.9", "unit": "g"}
    ]},
    {"molecule": "KMUP-1-sodium carboxyl methylcellulose [KMUP-1-CMC]", "values": [
      {"measurement": "HDL chol.", "setting": "mice fed with HFD", "value": "108.4 ± 1.3", "unit": "mg/dL"},
      {"measurement": "LDL chol.", "setting": "mice fed with HFD", "value": "16.4 ± 1.7", "unit": "mg/dL"},
      {"measurement": "TG", "setting": "mice fed with HFD", "value": "83.2 ± 5.3", "unit": "mg/dL"},
      {"measurement": "Tot. chol.", "setting": "mice fed with HFD", "value": "129.7 ± 1.6", "unit": "mg/dL"},
      {"measurement": "eNOS expression", "setting": "eNOS", "value": "152.14 ± 6.3", "unit": "%"},
      {"measurement": "PDE-5A expression", "setting": "PDE-5A", "value": "58.7 ± 3.5", "unit": "%"},
      {"measurement": "ROCK II expression", "setting": "ROCK II [3]", "value": "38.6 ± 2.7", "unit": "%"}
    ]},
    {"molecule": "CC(O)(CCO)CC(=O)O", "note": "(stereo not drawn) [Mevalonate]", "values": [
      {"measurement": "HMGR (%)", "setting": "HMG CoA reductase; Mevalonate 20 (μm)", "value": 110, "unit": "%"},
      {"measurement": "HMGR (%)", "setting": "HMG CoA reductase; Mevalonate 40 (μm)", "value": 95, "unit": "%"},
      {"measurement": "HMGR (%)", "setting": "HMG CoA reductase; Mevalonate 60 (μm)", "value": 55, "unit": "%"},
      {"measurement": "HMGR (%)", "setting": "HMG CoA reductase; Mevalonate 80 (μm)", "value": 48, "unit": "%"},
      {"measurement": "HMGR (%)", "setting": "HMG CoA reductase; Mevalonate 100 (μm)", "value": 13, "unit": "%"},
      {"measurement": "HMG CoA expression", "setting": "HMG CoA reductase; Mevalonate (100 μM) alone, Control 100", "value": 20, "unit": "%"}
    ]},
    {"molecule": "KMUP-1-DL-ascorbic acid [KMUP-1-VC]", "values": [
      {"measurement": "HDL chol.", "setting": "mice fed with HFD", "value": "97.3 ± 1.6", "unit": "mg/dL"},
      {"measurement": "LDL chol.", "setting": "mice fed with HFD", "value": "16.5 ± 0.9", "unit": "mg/dL"},
      {"measurement": "TG", "setting": "mice fed with HFD", "value": "78.2 ± 3.6", "unit": "mg/dL"},
      {"measurement": "Tot. chol.", "setting": "mice fed with HFD", "value": "129.4 ± 1.4", "unit": "mg/dL"},
      {"measurement": "PDE-5A expression", "setting": "PDE-5A", "value": "68.8 ± 5.3", "unit": "%"},
      {"measurement": "ROCK II expression", "setting": "ROCK II [3]", "value": "40.8 ± 3.7", "unit": "%"}
    ]},
    {"molecule": "Nc1nc2c(nc(Sc3ccc(Cl)cc3)n2[C@@H]2O[C@@H]3CO[P@@](=O)(S)O[C@H]3[C@H]2O)c(=O)[nH]1", "note": "[Rp-8-pCPT-cGMPS, 8-(p-chloro-phenylthio)guanosine-3,5-monophosphorothioate, reference compound]", "values": [
      {"measurement": "ROCK II expression", "setting": "ROCK II [1]; Rp-8-pCPT-cGMPS 10 μM alone, Control 100", "value": 320}
    ]}
  ]
}
